Measurements reported in patent US11053260B2, “Tri-cycle compound and applications thereof” (FUJIAN COSUNTER PHARMACEUTICAL CO., LTD., priority 2017, dated 2021).

tested on: HBV; assay: HBV in vitro test in quantitative qPCR assay (HBV DNA content in HepG2.2.15 cells); type: cell-based; conditions: Hepatitis B virus, HepG2.2.15, 192 h, HBV DNA by qPCR, day 8, read-out: 50% inhibitory concentration (EC50) value of HBV
Description: HBV In Vitro Test in Quantitative qPCR Assay
The HBV DNA content in HepG2.2.15 cells was determined by real-time quantitative qPCR assay (real time-qPCR), and the inhibitory effect of the compound on HBV was evaluated by the EC50 value of the compound.
2.1 Cell line: HepG2.2.15 cells
3.1 HepG2.2.15 cells (4×10^4 cells/well) were seeded into a 96-well plate and incubated overnight at 37° C. under 5% CO2.
3.2 On the 2nd day, the compound was diluted into 8 concentrations with 3-time gradient. The compounds with different concentrations were added into the culture wells in duplicate wells. The final concentration of DMSO in the culture medium was 1%. 1 μM GLS4 was used as a 100% inhibition control, and 1% DMSO was used as a 0% inhibition control.
3.3 On the 5th day, the culture medium was replaced with a fresh medium containing the compound.
3.4 On the 8th day, the culture medium in the culture well was collected, and the DNA was extracted with a high-throughput DNA purification kit (Qiagen-51162), of which specific procedure was referred to the product specification.
3.6 15 μL of the reaction mixture was added into each well of a 96-well PCR plate, followed by addition of 10 μL of sample DNA or HBV DNA standards into each well.
3.7 PCR reaction conditions: heating at 95° C. for 10 minutes; then denaturation at 95° C. for 15 seconds, extension at 60° C. for 1 minute, a total of 40 cycles.
3.8.1 Calculation of the percentage of inhibition: % Inh.=[1−(DNA copy number in sample−DNA copy number in 1 μM GLS4)/(DNA copy number in DMSO control−DNA copy number in 1 μM GLS4)]×100
3.8.2 Calculation of EC50: The 50% inhibitory concentration (EC50) value of the compound on HBV was calculated by GraphPad Prism software.

`O=C(NCCC1COCCOC1)c1ccc2c(c1)NC(=O)c1cccn1S2(=O)=O` [WX321] and `CN1CCOC(CCNC(=O)c2ccc3c(c2)NC(=O)c2cccn2S3(=O)=O)C1` (stereo not drawn) [WX326] cannot be ordered by EC50: 100 to 500 nM for the first, no more than 100 nM for the second.

`CC(=O)N1CCOC(CCNC(=O)c2ccc3c(c2)NC(=O)c2cccn2S3(=O)=O)C1` (stereo not drawn) [WX322] and `COC(=O)N1CCOC(CCNC(=O)c2ccc3c(c2)NC(=O)c2cccn2S3(=O)=O)C1` (stereo not drawn) [WX323] cannot be ordered by EC50: no more than 100 nM for the first, no more than 100 nM for the second.

`O=C(NCCC1COCCO1)c1ccc2c(c1)NC(=O)c1cc(CC(F)(F)F)cn1S2(=O)=O` (stereo not drawn) [WX328] and `CC(C)c1cc2n(c1)S(=O)(=O)c1ccc(C(=O)NCCC3COCCO3)cc1NC2=O` (stereo not drawn) [WX338] cannot be ordered by EC50: no more than 100 nM for the first, 100 to 500 nM for the second.
